Test results reported in the supplement of paper PMC11451515.

What was measured:
Experiment in all cases: AUC of viability dose-response curve (% viability x log10 dose units); higher = less sensitive
Conditions in all cases: 48 h
P12-Ichikawa = test system: P12-Ichikawa
Procedure, shortened: (§1)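 Medium-adapted leukemia cells in 1536-well plates, at 500 or 1000 cells/well, were incubated for 48 h at 37°C with library compounds in DMSO at 11 threefold doses from 47 μM to 0.79 nM. CellTiter-Glo One luminescence normalised per plate to DMSO and cell-free wells was fitted with a four-parameter log-logistic model over log10 doses. Area under the curve was integrated from this fit by trapezoidal rule, with curves beyond full viability scaled and failed quality-control curves removed.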

NOMO1 = test system: NOMO1
Procedure, shortened: as §1

SEM cells = test system: SEM cells
Procedure, shortened: as §1

[1] = RPMI 5 mM glucose + 10% dialyzed FBS

Row | SMILES | AUC of viability dose-response curve (P12-Ichikawa; HPLM + 10% dialyzed FBS) | AUC of viability dose-response curve (P12-Ichikawa; RPMI 5 mM glucose + 10% FBS) | AUC of viability dose-response curve (P12-Ichikawa; [1]) | AUC of viability dose-response curve (NOMO1; HPLM + 10% dialyzed FBS) | AUC of viability dose-response curve (NOMO1; RPMI 5 mM glucose + 10% FBS) | AUC of viability dose-response curve (NOMO1; [1]) | AUC of viability dose-response curve (SEM cells; HPLM + 10% dialyzed FBS) | AUC of viability dose-response curve (SEM cells; RPMI 5 mM glucose + 10% FBS) | AUC of viability dose-response curve (SEM cells; [1])
1 | O=C(NCCCNc1nc(Nc2cccc(NC(=O)N3CCCC3)c2)ncc1I)c1cccs1 | 407 | 400 | 401 | 375 | 381 | 384 | – | – | –
2 | CC[C@H](NC(C)C)[C@H](O)c1ccc(O)c2[nH]c(=O)ccc12 | 451 | 462 | 456 | 470 | 447 | 463 | 442 | 472 | 474
3 | CCCNCC(O)COc1ccccc1C(=O)CCc1ccccc1 (configuration not stated) | 450 | 452 | 458 | 457 | 391 | 473 | 438 | 444 | 432
4 | CC(C[N+](C)(C)C)OC(N)=O (configuration not stated) | 469 | 456 | 468 | 462 | 456 | 465 | 462 | 456 | 477
5 | C[C@H](NC(=O)Cc1cc(F)cc(F)c1)C(=O)N[C@@H]1C(=O)N(C)c2ccccc2-c2ccccc21 | – | – | – | 386 | 417 | 434 | 373 | 309 | 362
6 | O=C(O)[C@@H](c1ccc(OCc2ccc3ccccc3n2)cc1)C1CCCC1 | 450 | 435 | 458 | 466 | 470 | 454 | – | – | –
7 | FC1=CC=C(CN2\C=C/C=C(/C(=O)N[C@@H](COC3=CC4=C(NC(=O)N4)C=C3)C5=CC=CC=C5)C2=O)C=C1F | 430 | 365 | 375 | – | – | – | 373 | 409 | 365
8 | C[C@H]1C[C@H]2[C@@H]3CCC4=CC(=O)C=C[C@]4(C)[C@H]3C(=O)C[C@]2(C)[C@@]1(O)C(=O)CO | 443 | 454 | 402 | 442 | 407 | 394 | 390 | 366 | 401
9 | CN[C@H]1[C@H](O[C@@H]2[C@H](O[C@@H]3[C@@H](O)[C@@H](O)[C@@H](NC(=N)N)[C@@H](O)[C@H]3NC(=N)N)O[C@H](C)[C@@]2(O)C=O)O[C@@H](CO)[C@@H](O)[C@H]1O | 452 | 450 | 424 | 412 | 456 | 449 | 386 | 432 | 455
10 | O=C1CCC[C@@H]2[C@H]3CCC[N+]4([O-])CCC[C@@H](CN12)[C@@H]34 (some centres not stated) | 463 | 435 | 422 | 364 | 374 | 369 | 373 | 406 | 398
11 | N#CC1(c2ccc(NC(=O)c3cccnc3NCc3ccncc3)cc2)CCCC1 | 437 | 461 | 435 | 442 | 475 | 463 | 442 | 431 | 412
12 | CC(=O)OCC(=O)[C@@]12OC(C)(C)O[C@@H]1C[C@H]3[C@@H]4C[C@H](F)C/5=C/C(=O)/C=C\[C@]5(C)[C@@]4(F)[C@@H](O)C[C@]23C | 393 | 370 | 344 | 474 | 440 | 420 | – | – | –
13 | Cc1ccc(NC(=O)Nc2cc(C(F)(F)F)ccc2F)cc1Nc1ccc2c(c1)NC(=O)/C2=C\c1ccc[nH]1 | 466 | 462 | 454 | 455 | 460 | 449 | 439 | 440 | 428
14 | COc1cc(Nc2ncc(F)c(Nc3ccc4c(n3)N(COP(=O)(O)O)C(=O)C(C)(C)O4)n2)cc(OC)c1OC | 470 | 456 | 457 | 472 | 453 | 438 | 287 | 292 | 245
15 | OCCNC1CCCc2c1[nH]c1ccc(-c3ccccc3)cc21 (configuration not stated) | 444 | 441 | 446 | 448 | 454 | 453 | 409 | 413 | 416
16 | NCCCC(O)(P(=O)(O)O)P(=O)(O)O.O.O.O.[Na+] | 395 | 421 | 398 | 416 | 439 | 456 | 402 | 366 | 382
17 | NC/1=N/C(=O)N(C[C@@H](CO)OC[P](O)(O)=O)/C=C1 | 458 | 443 | 460 | 421 | 460 | 475 | 455 | 466 | 439
18 | O=C(C1CC1)N1CC[C@@H](Cn2c(-c3ccc(-c4ccc5occc5c4)cc3)nc3cnccc32)C1 | 461 | 470 | 469 | 469 | 456 | 468 | 457 | 465 | 462
19 | CCc1cccc2c3c([nH]c12)C(CC)(CC(=O)O)OCC3 (configuration not stated) | 466 | 448 | 465 | 452 | 441 | 427 | 454 | 409 | 448
20 | CO[C@@H]1[C@@H](OC(N)=O)[C@@H](O)[C@H](OC2=CC=C3\C(=C(NC(=O)C4=CC=C([O-])C(=C4)CC=C(C)C)/C(=O)OC3=C2C)O)OC1(C)C | 449 | 465 | 464 | 437 | 451 | 437 | 476 | 445 | 461
21 | CN(C)/[N+]([O-])=N/Oc1cc(ON[N+](=O)N2CCN(C(=O)c3cc(Cc4n[nH]c(=O)c5ccccc45)ccc3F)CC2)c([N+](=O)[O-])cc1[N+](=O)[O-] | 467 | 469 | 466 | 438 | 460 | 441 | 444 | 446 | 448
22 | O=[N+]([O-])c1ccc(Nc2ccccc2-c2ccccc2)c2nonc12 | 432 | 432 | 433 | 451 | 432 | 418 | – | – | –
23 | COC/1=C/[C@@H]2[C@@H]3CC4=C(C(=C(OC)C=C4)O)[C@]2(CCN3C)CC1=O | 473 | 467 | 466 | 476 | 459 | 471 | 472 | 469 | 464
24 | C=CC(=O)Nc1cccc(Oc2nc(Nc3ccc(N4CCN(C)CC4)cc3OC)ncc2Cl)c1 | 374 | 351 | 365 | 325 | 355 | 362 | – | – | –

Row | SMILES | AUC of viability dose-response curve (P12-Ichikawa; HPLM + 10% dialyzed FBS) | AUC of viability dose-response curve (P12-Ichikawa; RPMI 5 mM glucose + 10% FBS) | AUC of viability dose-response curve (P12-Ichikawa; [1]) | AUC of viability dose-response curve (NOMO1; HPLM + 10% dialyzed FBS) | AUC of viability dose-response curve (NOMO1; RPMI 5 mM glucose + 10% FBS) | AUC of viability dose-response curve (NOMO1; [1]) | AUC of viability dose-response curve (SEM cells; HPLM + 10% dialyzed FBS) | AUC of viability dose-response curve (SEM cells; RPMI 5 mM glucose + 10% FBS) | AUC of viability dose-response curve (SEM cells; [1])
25 | C[C@H]1[C@H](O)O[C@@H]2O[C@@]3(C)CC[C@H]4[C@H](C)CC[C@@H]1[C@@]24OO3 | 386 | 340 | 333 | 321 | 316 | 341 | 374 | 348 | 324
26 | O=C(C[C@@H]1C/C=C\CCC(=O)O[C@H](c2ccccc2)CNC1=O)NCc1ccc(Cl)cc1 | 452 | 447 | 457 | 473 | 471 | 465 | 437 | 415 | 436
27 | O=[S+]([O-])(CCSSCC[S+](=O)([O-])[O][Na])[O][Na] | 461 | 451 | 472 | 432 | 428 | 450 | 423 | 457 | 438
28 | COC1=CC(=CC=C1)C2=CC=C(NC(=O)/C3=C(/CCC3)C(O)=O)C(=C2)F | 444 | 436 | 431 | 428 | 469 | 457 | 465 | 461 | 447
29 | C[C@]12CC[C@@H]3c4ccc(O)cc4CC[C@H]3[C@@H]1CC[C@@H]2O | 446 | 455 | 440 | 435 | 453 | 450 | 441 | 434 | 431
30 | CCc1ccc(C(=O)Nc2cc(CN3CCN(C)CC3)cc(C(F)(F)F)c2)cc1C#Cc1cnc2ccnn2c1 | 459 | 454 | 415 | 459 | 460 | 477 | 449 | 453 | 451
31 | O=[S+]([O-])(O)c1ccc2cc(/N=N/c3cc([S+](=O)([O-])O)c4cccnc4c3O)ccc2c1 | 462 | 463 | 458 | 455 | 462 | 460 | – | – | –
32 | Nc1nc(Nc2ccc([S+](N)(=O)[O-])cc2)nn1C(=O)c1c(F)cccc1F | 455 | 435 | 439 | 437 | 410 | 402 | 397 | 407 | 399
33 | O=P1(N(CCCl)CCCl)NCCCO1 (configuration not stated) | 409 | 424 | 448 | 416 | 436 | 430 | 413 | 405 | 406
34 | NCCCCCC(=O)O | 463 | 469 | 463 | 469 | 459 | 447 | 398 | 459 | 389
35 | NC1CCC(Nc2nc(Nc3ccc(C(=O)N4CCCCC4)cc3)c3ncn(-c4cccc(F)c4)c3n2)CC1 (configuration not stated) | 429 | 459 | 439 | 437 | 457 | 470 | 436 | 435 | 426
36 | O=C(O)CSCC(=O)NC1CCSC1=O (configuration not stated) | 466 | 469 | 463 | 471 | 476 | 476 | 451 | 456 | 464
37 | O=C([O-])[C@H](CC(=O)N1C[C@H]2CCCC[C@H]2C1)Cc1ccccc1 | 445 | 442 | 471 | 465 | 440 | 448 | 395 | 418 | 374
38 | CCC(=O)OC1CCC2C3CCC/4=C/C(=O)CC[C@@]4(C)C3CC[C@]12C (some centres not stated) | 471 | 473 | 466 | 457 | 456 | 458 | 450 | 460 | 448
39 | CN(c1nccc(=O)[nH]1)C1CCN(c2nc3ccccc3n2Cc2ccc(F)cc2)CC1 | 466 | 460 | 462 | 466 | 459 | 471 | 474 | 424 | 473
40 | COCCCOc1ccnc(C[S+]([O-])c2nc3ccccc3[nH]2)c1C (configuration not stated) | 464 | 450 | 449 | 467 | 475 | 460 | – | – | –
41 | NC(=O)c1ccc(-c2nc(-c3ccc4c(c3)OCO4)c(-c3ccccn3)[nH]2)cc1 | 457 | 429 | 452 | 473 | 466 | 472 | – | – | –
42 | CO[C@H]1/C=C/O[C@@]2(C)Oc3c(C)c(O)c4c(O)c(c(/C=N/N5CCN(C)CC5)c(O)c4c3C2=O)NC(=O)/C(C)=C\C=C\[C@H](C)[C@H](O)[C@@H](C)[C@@H](O)[C@@H](C)[C@H](OC(C)=O)[C@@H]1C | 441 | 445 | 430 | 431 | 461 | 461 | – | – | –
43 | COc1ccc(C(=O)CC(=O)c2ccc(C(C)(C)C)cc2)cc1 | 471 | 473 | 476 | 449 | 458 | 465 | – | – | –
44 | COc1ccc2c(OCc3nnc4ccc(-c5ccccc5)nn34)ccnc2c1 | 459 | 477 | 428 | 443 | 471 | 466 | – | – | –
45 | FC(F)(F)C1=CC=C2C(SCCCCCO\C3=C\O\C(CN4CCOCC4)=C/C3=O)=CC=NC2=C1 | 464 | 457 | 461 | 470 | 477 | 469 | – | – | –
46 | Cn1cnc(-c2cc3nccc(Oc4ccc(NC(=S)NC(=O)Cc5ccccc5)cc4F)c3s2)c1 | 391 | 374 | 395 | 393 | 395 | 397 | – | – | –
47 | C/C(=C\c1csc(C)n1)[C@@H]1C[C@@H]2O[C@@H]2CCC[C@H](C)[C@H](O)[C@@H](C)C(=O)C(C)(C)[C@@H](O)CC(=O)O1 | – | – | – | 146 | 93 | 138 | – | – | –
